# Source: paper PMC4519324, “Substrate Specificity, Inhibitor Selectivity and Structure-Function Relationships of Aldo-Keto Reductase 1B15: A Novel Human Retinaldehyde Reductase” (PLoS ONE, 2015)
# Read-outs that look alike come from different tables or passages of the source.
# Experiments:
# AKR1B15 [1] = biological target: T1, AKR1B15 (Homo sapiens, UniProt C9JRZ8); assay: Spectrophotometric activity assay (NADPH decrease at 340 nm), substrate kinetics; assay type: biochemical; conditions: for Km / k cat: substrate, spectrophotometric, 0.2 mM NADPH; for Km: 100 mM sodium phosphate pH 7.0, 25°C, <1 values only approximate; for k cat: pH 7.0, 25°C
# T1 construct: made in house; host or cells: E. coli BL21(DE3), with or without chaperone plasmids pBB540/pBB542
# T1 sequence (C9JRZ8 whole entry): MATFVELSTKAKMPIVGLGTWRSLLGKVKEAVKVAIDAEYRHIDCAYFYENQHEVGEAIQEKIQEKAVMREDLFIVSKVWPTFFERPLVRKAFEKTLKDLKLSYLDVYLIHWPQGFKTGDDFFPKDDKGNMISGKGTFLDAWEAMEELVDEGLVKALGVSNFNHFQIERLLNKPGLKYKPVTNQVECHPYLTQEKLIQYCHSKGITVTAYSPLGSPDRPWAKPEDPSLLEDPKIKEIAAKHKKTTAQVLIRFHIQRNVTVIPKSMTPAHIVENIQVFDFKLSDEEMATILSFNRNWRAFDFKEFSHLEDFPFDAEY
# AKR1B1 [2] = biological target: T2, AKR1B1 (Homo sapiens, UniProt P15121); conditions: substrate, cited from earlier work; for Km: read-out: Km
# T2 construct: made in house
# AKR1B10 [3] = biological target: T3, AKR1B10 (Homo sapiens, UniProt O60218); conditions: substrate; cited from earlier work
# T3 construct: made in house
# T3 sequence (O60218 whole entry): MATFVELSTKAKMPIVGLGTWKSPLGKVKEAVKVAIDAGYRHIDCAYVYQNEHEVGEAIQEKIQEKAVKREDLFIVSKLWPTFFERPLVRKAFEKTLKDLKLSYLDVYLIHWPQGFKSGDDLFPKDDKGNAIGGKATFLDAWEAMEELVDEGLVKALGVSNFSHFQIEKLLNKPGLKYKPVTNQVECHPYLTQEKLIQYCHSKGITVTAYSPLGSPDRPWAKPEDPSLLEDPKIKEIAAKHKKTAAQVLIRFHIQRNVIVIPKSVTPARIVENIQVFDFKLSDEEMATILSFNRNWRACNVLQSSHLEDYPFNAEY
# AKR1B10 [4] = biological target: T3, AKR1B10; assay: Spectrophotometric activity assay (NADPH decrease at 340 nm), substrate kinetics; assay type: biochemical
# AKR1B1 [5] = biological target: T2, AKR1B1; assay: as above; assay type: biochemical; conditions: at saturating concentration of substrate for AKR1B15
# Method: (§1) Activities were determined in 100 mM sodium phosphate, pH 7.0, at 25°C, using 0.2 mM NADPH in 0.2-cm path length cuvettes, with freshly prepared substrate solutions. One unit of activity is defined as the amount of enzyme required to transform 1 μmol of substrate per min at 25°C.
# (§2) All compounds tested as inhibitors were dissolved in DMSO and assayed in a final concentration of 0.1% (v/v) DMSO using 6 mM D,L-glyceraldehyde as a substrate. Kinetic constant and IC50 (compound concentration that inhibits enzymatic activity by 50%) values were calculated by fitting the initial rates to the appropriate equation using Grafit 5.0 (Eritacus Software) and values were given as the mean ± standard error of three experiments. Standard error values were less than 20% of the mean values.
# AKR1B15 [6] = biological target: T1, AKR1B15; assay: Inhibition screening with D,L-glyceraldehyde as substrate; assay type: biochemical; conditions: for IC50: 6 mM D,L-glyceraldehyde as substrate, 0.1% DMSO
# Method: as §1, §2
# AKR1B10 [7] = biological target: T3, AKR1B10; set-up: method as in PMID 18087047; conditions: HPLC-based method; cited from earlier work
# AKR1B15 [8] = biological target: T1, AKR1B15; assay: HPLC enzymatic activity assay with retinaldehyde isomers; assay type: biochemical; conditions: HPLC-based method
# Method: Activity assays with retinoids were carried out using an HPLC-based methodology. Briefly, retinaldehyde isomers were solubilized using glass tubes by a 10-min sonication at molar ratio 1:1 with fatty acid-free bovine serum albumin in 90 mM potassium phosphate, 40 mM potassium chloride, pH 7.4. The actual amount of solubilized retinoid was determined based on the corresponding molar absorption coefficient in aqueous solutions at the appropriate wavelength: ε400 = 29,500 M^−1·cm^−1 for all-trans-retinaldehyde and ε367 = 26,700 M^−1·cm^−1 for 9-cis-retinaldehyde. For retinol isomers, which were used as standards of the reaction product, their concentration was determined in hexane using ε325 = 51,770 M^−1·cm^−1 for all-trans-retinol and ε325 = 43,765 M^−1·cm^−1 for 9-cis-retinol. The reactions were started by the addition of cofactor and carried out for 15 min at 37°C in a final volume of 0.5 mL. With the aim to measure the steady-state enzymatic activity, the concentration of enzyme was kept from 25- to 100-fold lower than that of the substrate for all the enzymatic assays. The reactions were stopped by the addition of 1 mL of cold methanol and after two rounds of extraction with hexane, retinoids were analyzed by HPLC as previously described. All retinoid manipulations were performed under dim light.
# as §2
# AKR1B1 [9] = biological target: T2, AKR1B1; set-up: method as in PMID 18087047; conditions: HPLC-based method; cited from earlier work
Km (AKR1B15 [1]; read-out: Km),k cat (AKR1B15 [1]),Structure (SMILES),Km (AKR1B1 [2]),k cat (min^−1) (AKR1B1 [2]),Km (AKR1B10 [3]),k cat (min^−1) (AKR1B10 [3]),other results
< 1 µM,10.6 min⁻¹,"CC(=O)C(C)=O [2,3-butanedione]",110 µM,23 ^d min^−1,540 µM,260 ^d min^−1,
365 µM,4.41 min⁻¹,O=C1C=CCCC1 [2-cyclohexen-1-one],,,,,"activity class (AKR1B10 [4]; at saturating concentration of substrate for AKR1B15): LA (LA, low activity (≤ 10 mU/mg) was detected at saturating concentration of substrate for AKR1B15); activity class (AKR1B1 [5]): LA (LA, low activity (≤ 10 mU/mg) was detected at saturating concentration of substrate for AKR1B15)"
2.9 µM,9 min⁻¹,O=Cc1cccnc1 [pyridine-3-aldehyde],10 µM,61 ^b min^−1,13 µM,150 ^b min^−1,
1300 µM,5.3 min⁻¹,"CCC(=O)CC(=O)CC [3,5-heptanedione]",,,,,"Km (AKR1B10 [4]; substrate, spectrophotometric, read-out: Km): > 50 mM"
3.1 µM,7.3 min⁻¹,CCCCCC=O [hexanal],5 µM,28 ^b min^−1,112 µM,142 ^b min^−1,
,,O=C1NC(=O)[C@@]2(CCOc3ccc(F)cc32)N1 [Sorbinil],,,,,IC50 (AKR1B15 [6]): > 100 µM
,,CC1=C(/C=C/C(C)=C\C=C\C(C)=C\C=O)C(C)(C)CCC1 [9-cis-retinaldehyde],,,,,"Km (AKR1B10 [7]): 700 ± 100 nM; k cat (AKR1B10 [7]): 0.9 ± 0.1 min⁻¹; k cat (AKR1B15 [8]; 37°C, pH 7.4): 3.8 ± 0.2 min⁻¹; Km (AKR1B15 [8]; 37°C, pH 7.4, read-out: Km): 160 ± 30 nM; Km (AKR1B15 [8]; read-out: Km value): 160 nM; Km (AKR1B1 [9]): 400 ± 100 nM; k cat (AKR1B1 [9]): 0.7 ± 0.2 min⁻¹"
,,NC(=O)C1=CN([C@@H]2O[C@H](COP(=O)(O)OP(=O)(O)OC[C@H]3O[C@@H](n4cnc5c(N)ncnc54)[C@H](O)[C@@H]3O)[C@@H](O)[C@H]2O)C=CC1 [NADH],,,,,enzymatic activity relative to that with NADPH (AKR1B15 [1]; 0.2 mM NADH): less than 5%
2.2 µM,5.2 min⁻¹,CCCCCC(O)C=CC=O (stereo not drawn) [4-hydroxy-2-nonenal],716 µM,50 ^c min^−1,31 µM,121 ^c min^−1,
,,CC(/C=C1\SC(=S)N(CC(=O)O)C1=O)=C\c1ccccc1 [Epalrestat],,,,,IC50 (AKR1B15 [6]): > 50 µM
,,"CCCCCCCCCCCC(=O)N(C)CC(=O)[O-].[Na+] [Sarkosyl, sodium N-lauroylsarcosinate]",,,,,inhibition model (AKR1B15 [6]; data not shown): non-competitive

Structure (SMILES),Km (AKR1B15 [1]; read-out: Km),k cat (AKR1B15 [1]),Km (AKR1B1 [2]),k cat (min^−1) (AKR1B1 [2]),Km (AKR1B10 [3]),k cat (min^−1) (AKR1B10 [3]),other results
"O=CC(O)CO (racemic) [D,L-glyceraldehyde]",880 µM,10.7 min⁻¹,50 µM,31 ^a min^−1,6000 µM,35 ^a min^−1,
C=CC=O [acrolein],36 µM,8.8 min⁻¹,884 µM,11 ^c min^−1,110 µM,116 ^c min^−1,
O=Cc1ccccc1 [benzaldehyde],,12.1 min⁻¹,21 µM,91 ^b min^−1,9.7 µM,104 ^b min^−1,Km (AKR1B15 [1]): < 1 µM
CC(C)=CCCC(C)=CCCC(C)=CC=O [farnesal],< 1 µM,4.8 min⁻¹,37 µM,27 ^b min^−1,2.3 µM,30 ^b min^−1,
